In one assay the test system is pSTAT5/GM-CSF. Kind of assay: pSTAT5/GM-CSF cellular assay (JAK2 selectivity). The class given is cell-based.
For assay [1], the system named is JAK2, TYK2/p-STAT4 (Tyr693) activated by IL-12 in NK-92 cell line. Kind of assay: IL-12-JAK2, TYK2/p-STAT4 (Tyr693) inhibition IC50 cellular assay. In kind it is cell-based. As to conditions: for Selectivity fold (TYK2/JAK2): Cellular assay, pSTAT5/GM-CSF IC50 vs pSTAT4/IL-12 IC50; for IC50: NK92, Cellular assay, read-out: pSTAT4/IL-12 IC50. An excerpt:
Assay C: IL-12-JAK2, TYK2/p-STAT4 (Tyr693) Inhibition IC50 Cellular Assay
To evaluate the inhibition effect of compounds disclosed herein on JAK2, TYK2/p-STAT4 (Tyr693) activated by IL-12 in NK-92 cell line, NK-92 cells were collected and washed 3 times by DPBS and resuspended in MEM-α (GIBCO, Cat #12561056) with 10% FBS (Gibco, Cat #10099, Lot #1891605), without IL-2 (R&D systems, Cat #202-IL), starved overnight. Cells were collected and resuspended in 1640 medium (phenol red free, Gibco, Cat #11835-030) with 0.1% BSA, and 12.5 μl/5×10^4/well cell suspension were seeded to the 96-well plate (Corning, Cat #3799). Then cells were treated with compounds diluted in 0.2% DMSO 1640 medium, at 37° C., 1 h. Dilution is done according to the following protocol: (1) make 500× compounds solution in DMSO from 5 mM by 4-fold dilution, total 8 doses were included; (3) make 2× compounds solution in assay medium by transferring 0.5 μl serial 500× stock solution into 125 μl assay medium; (4) 15 μl of 2× serial solution is added to cells and incubate at 37° C. for 1 h, the final compound conc. is 10000, 2500, 625, 156.25, 39, 9.8, 2.4 and 0.61 nM, respectively. After 1 h, cells were treated with 2.5 μl medium containing IL-12 at 37° C. (R&D systems, Cat #219-IL-005, final conc. 40 ng/ml), 30 min. Following cells were lysed with 7.5 μl lysis buffer at RT, shaking on shaker for 1 h. 10 μL of cell lysate were transferred to a PE 384-well Proxiplate detection plate, and 5 μL of pre-mixed Alphascreen beads were added to each well. Covered the plate with a plate sealer, span 1000 rpm for 1 min, mix, Incubated overnight at room temperature. Read on BMG PheraStar with Alphascreen protocol. IC 50 values were calculated by fitting dependent data to the four-parameter logistic model using dotmatics software. The assay was performed by using AlphaLISA SureFire Ultra p-STAT4 (Tyr693) Assay Kit—High Volume (PE, Cat #ALSU-PST4-A-HV).

The target in assay [2] is T1, TYK2-JH2 (aa 575-869, in-house) protein (Homo sapiens, UniProt P29597).
T1 construct: TYK2-JH2 (aa 575-869, in-house) protein; made in house
Kind of assay: TYK2-JH2 biochemical assay (HTRF probe displacement). In kind it is binding. The following applies: Biochemical assay; read-out: TYK2-JH2 IC50. The procedure, abridged:
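HTRF probe-displacement format: compound dilutions (10 points, 5-fold, from 500 uM in DMSO at 500×) were combined with 0.2 nM TYK2-JH2 protein for 0.5 h at room temperature in HEPES pH 7.5 buffer with MgCl2, BSA, DTT and Brij-35. Percent inhibition came from the 615/665 nm fluorescence ratio, fitted to a four-parameter logistic for IC50.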
Background: In TR-FRET formats the signal depends on donor and acceptor labels being close together.

T1 sequence (P29597 575-869): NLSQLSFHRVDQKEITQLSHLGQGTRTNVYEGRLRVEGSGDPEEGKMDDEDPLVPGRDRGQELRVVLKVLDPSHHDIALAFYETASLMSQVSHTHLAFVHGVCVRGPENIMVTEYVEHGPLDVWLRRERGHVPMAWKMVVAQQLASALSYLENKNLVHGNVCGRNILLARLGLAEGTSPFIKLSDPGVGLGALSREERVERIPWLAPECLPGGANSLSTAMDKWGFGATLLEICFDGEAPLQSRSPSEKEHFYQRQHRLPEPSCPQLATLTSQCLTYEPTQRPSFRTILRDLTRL

Consider `CC(=O)Nc1cc(Nc2cc(OC(C)C)cc(S(C)(=O)=O)n2)c(-c2ccc(C#N)cn2)cn1` [Example A17, N-(5-cyano-4′-((4-isopropoxy-6-(methylsulfonyl)pyridin-2-yl)amino)-[2,3′-bipyridin]-6′-yl)acetamide], for which the IC50 was above 10 µM in the assay on pSTAT5/GM-CSF, 1.64 nM in assay [1] and 0.028 nM in assay [2]. In addition, in assay [1], the “Selectivity fold (TYK2/JAK2)” value was above 6097 fold.
Taken in the same sequence, the figures for `CC(=O)Nc1cc(Nc2cc(OC(C)C)cc(S(C)(=O)=O)n2)c(-c2ccn(C3CCC3)n2)cn1` [Example A19, N-(5-(1-cyclobutyl-1H-pyrazol-3-yl)-4-((4-isopropoxy-6-(methylsulfonyl)pyridin-2-yl)amino)pyridin-2-yl)acetamide] were above 10 µM, 1.53 nM, 0.034 nM and above 6535 fold.
In the same order, the values of `CC(=O)Nc1cc(Nc2cc(C)cc(S(C)(=O)=O)n2)c(-c2ccc(C(C)(C)N)cn2)cn1` [Example A20, N-(5-(2-aminopropan-2-yl)-4′-((4-methyl-6-(methylsulfonyl)pyridin-2-yl)amino)-[2,3′-bipyridin]-6′-yl)acetamide] are 2.38 µM, 1.12 nM, 0.03 nM and 2124 fold.
In the same order, the values of `CC(=O)Nc1cc(Nc2cccc(S(C)(=O)=O)n2)c(-c2cccnn2)cn1` [Example A24, N-(4-((6-(methylsulfonyl)pyridin-2-yl)amino)-5-(pyridazin-3-yl)pyridin-2-yl)acetamide] are above 10 µM, 1.85 nM, 0.027 nM and above 5405 fold.
As for `COc1ccc(-c2cnc(NC(C)=O)cc2Nc2cc(OCC3CC3)cc(S(C)(=O)=O)n2)nn1` [Example A25, N-(4-((4-(cyclopropylmethoxy)-6-(methylsulfonyl)pyridin-2-yl)amino)-5-(6-methoxypyridazin-3-yl)pyridin-2-yl)acetamide], the IC50 in the assay on pSTAT5/GM-CSF was above 10 µM; in assay [1] it was 0.596 nM; in assay [2] it was 0.027 nM. For the same compound, the “Selectivity fold (TYK2/JAK2)” value in assay [1] is above 16778 fold.
In the same order, the values of `COc1ccc(-c2cnc(NC(C)=O)cc2Nc2cc(OC(C)C)cc(S(C)(=O)=O)n2)nn1` [Example A26, N-(4-((4-isopropoxy-6-(methylsulfonyl)pyridin-2-yl)amino)-5-(6-methoxypyridazin-3-yl)pyridin-2-yl)acetamide] are above 10 µM, 0.405 nM, 0.032 nM and above 24691 fold.
As for `COc1ccc(-c2cnc(NC(C)=O)cc2Nc2cc(N3C[C@@H](C)O[C@@H](C)C3)cc(S(C)(=O)=O)n2)nn1` [Example A27, N-(4-((4-((2S,6R)-2,6-dimethylmorpholino)-6-(methylsulfonyl)pyridin-2-yl)amino)-5-(6-methoxypyridazin-3-yl)pyridin-2-yl)acetamide], the results for the IC50 (with pSTAT5/GM-CSF; in assay [1]; in assay [2]) were above 10 µM, 2.1 nM and 0.034 nM, respectively. Moreover, in assay [1], the “Selectivity fold (TYK2/JAK2)” value was above 4761 fold.
In the same order, the values of `COc1ccc(-c2cnc(NC(C)=O)cc2Nc2nc(S(C)(=O)=O)cc3c2OCO3)nn1` [Example A28, N-(5-(6-methoxypyridazin-3-yl)-4-((6-(methylsulfonyl)-[1,3]dioxolo[4,5-c]pyridin-4-yl)amino)pyridin-2-yl)acetamide] are above 10 µM, 1.52 nM, 0.033 nM and above 6578 fold.
In the same order, the values of `CC(=O)Nc1cc(Nc2cc(C)cc(S(C)(=O)=O)n2)c(-c2ccc(OC(C)C)nn2)cn1` [Example A29, N-(5-(6-isopropoxypyridazin-3-yl)-4-((4-methyl-6-(methylsulfonyl)pyridin-2-yl)amino)pyridin-2-yl)acetamide] are above 10 µM, 0.452 nM, 0.042 nM and above 22123 fold.
As for `CC(=O)Nc1cc(Nc2cccc(S(N)(=O)=O)n2)c(-c2ccccn2)cn1` [Example B4, N-(4′-((6-sulfamoylpyridin-2-yl)amino)-[2,3′-bipyridin]-6′-yl)acetamide], the IC50 with pSTAT5/GM-CSF was above 10 µM; in assay [1] it was 2.53 nM; in assay [2], 0.019 nM. Moreover, the “Selectivity fold (TYK2/JAK2)” value in assay [1] was above 3952 fold.
In the same order, the values of `CC(=O)Nc1cc(Nc2cc(OCCO)cc(S(C)(=O)=O)n2)c(-c2ccccn2)cn1` [Example B7, N-(4′-((4-(2-hydroxyethoxy)-6-(methylsulfonyl)pyridin-2-yl)amino)-[2,3′-bipyridin]-6′-yl)acetamide] are above 10 µM, 5.58 nM, 0.016 nM and above 1792 fold.
Taken in the same sequence, the figures for `COCc1ccnc(-c2cnc(NC(C)=O)cc2Nc2cccc(S(C)(=O)=O)n2)c1` [Example B8, N-(4-(methoxymethyl)-4′-((6-(methylsulfonyl)pyridin-2-yl)amino)-[2,3′-bipyridin]-6′-yl)acetamide] were above 10 µM, 1.68 nM, 0.047 nM and above 5952 fold.
In the same order, the values of `CC(=O)Nc1cc(Nc2cccc(S(C)(=O)=O)n2)c(-c2ccc(N3CCOC(C)(C)C3)cn2)cn1` [Example B12, N-(5-(2,2-dimethylmorpholino)-4′-((6-(methylsulfonyl)pyridin-2-yl)amino)-[2,3′-bipyridin]-6′-yl)acetamide] are 0.61 µM, 0.74 nM, 0.034 nM and 824 fold.
Take `CC(=O)Nc1cc(Nc2cc(OC(C)C)cc(S(C)(=O)=O)n2)c(-c2ccc(N3CC4CC3CO4)cn2)cn1` (centres unmarked) [Example B16, N-(5-(2-oxa-5-azabicyclo[2.2.1]heptan-5-yl)-4′-((4-isopropoxy-6-(methylsulfonyl)pyridin-2-yl)amino)-[2,3′-bipyridin]-6′-yl)acetamide]: the values for the IC50 (in the assay on pSTAT5/GM-CSF; in assay [1]; in assay [2]) were 4.29 µM, 0.513 nM and 0.03 nM, respectively. Further, the “Selectivity fold (TYK2/JAK2)” value in assay [1] was found to be 8366 fold.
In the same order, the values of `CC(=O)Nc1cc(Nc2cccc(S(C)(=O)=O)n2)c(-c2cc(Cl)c(C(C)(C)O)cn2)cn1` [Example B17, N-(4-chloro-5-(2-hydroxypropan-2-yl)-4′-((6-(methylsulfonyl)pyridin-2-yl)amino)-[2,3′-bipyridin]-6′-yl)acetamide] are above 10 µM, 2.05 nM, 0.035 nM and above 4878 fold.
In the same order, the values of `COCC1CN(c2ccc(-c3cnc(NC(C)=O)cc3Nc3cc(OC(C)C)cc(S(C)(=O)=O)n3)nc2)CCO1` (centres unmarked) [Example B18, N-(4′-((4-isopropoxy-6-(methylsulfonyl)pyridin-2-yl)amino)-5-(2-(methoxymethyl)morpholino)-[2,3′-bipyridin]-6′-yl)acetamide] are above 10 µM, 1.05 nM, 0.036 nM and above 9523 fold.
In the same order, the values of `CC(=O)Nc1cc(Nc2cc(C)cc(S(C)(=O)=O)n2)c(-c2ccc(O[C@H]3CCOC3)cn2)cn1` [Example B21, (S)-N-(4′-((4-methyl-6-(methylsulfonyl)pyridin-2-yl)amino)-5-((tetrahydrofuran-3-yl)oxy)-[2,3′-bipyridin]-6′-yl)acetamide] are 2.49 µM, 0.443 nM, 0.047 nM and 5620 fold.

The values are drawn from patent US20240043435A1, “TYK-2 INHIBITOR” (BEIGENE, LTD., priority 2020, published 2024).
